Paper PMC8478281, “Targeting the FtsZ Allosteric Binding Site with a Novel Fluorescence Polarization Screen, Cytological and Structural Approaches for Antibacterial Discovery” (Journal of Medicinal Chemistry, 2021)
Values after ≈ are worked out from the molar mass of the structure shown. Where two headings read alike, the source gives them in different places.

Key:
[1] = tested on: B. subtilis; test: Minimal growth inhibitory concentration (broth macrodilution), B. subtilis; type: cell-based, Bacillus subtilis; conditions: Table S1, fluorescent probes
Outline: (§1)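 Strains grown in cation-adjusted Mueller–Hinton broth at 37 °C (B. subtilis SU570 at 30 °C) to A600 0.1–0.2, then exposed to compounds or DMSO. MIC by broth macrodilution; division phenotype assessed by microscopy and cell measurement.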

[2] = target: T1, glutaraldehyde-stabilized FtsZ polymers (Bacillus subtilis, UniProt P17865); test: Stoichiometry of probe binding by polymer pelleting (centrifugation assay)
T1 construct: made in house
Description: The stoichiometry of binding of (R)-5 to stabilized FtsZ polymers was measured using a centrifugation assay adapted from ref ([49]). Then, FtsZ polymers (10 μM) were incubated at 25 °C in HEPES buffer, 10 mM MgCl2, 2% DMSO, and 0.1 mM GMPCPP at 25 °C in the presence of different probe concentrations, in a final volume of 0.1 mL. The samples were then centrifuged for 20 min at 100 000 rpm and 25 °C in a TLA-100 rotor. After centrifugation, the supernatant was carefully withdrawn and the pellets were resuspended in the same volume of buffer. The concentration of the free probe was determined spectrophotometrically in the supernatant, employing an extinction coefficient ε483 = 25 400 M^–1 cm^–1 for (R)-5 and the concentration of probe bound to FtsZ was calculated as the difference of the known total concentration of probe minus the free concentration. To calculate the FtsZ polymer concentration, 5 μL of the resuspended pellet was applied to sodium dodecyl sulfate (SDS)-12% polyacrylamide gels, stained with Coomassie blue, scanned with a CS-800 calibrated densitometer (BioRad), and the protein bands quantified using Quantity One software (BioRad).

[3] = target: T2, BsFtsZ (Bacillus subtilis, UniProt P17865); test: Fluorescence anisotropy of probes after consecutive additions of FtsZ, GMPCPP, MgCl2 and PC190723; type: binding; conditions: for Fluorescence anisotropy (r): free probe: probe 10 μM in buffer; for Fluorescence anisotropy (r): + FtsZ (unassbld.) / Fluorescence anisotropy (r): + GMPCPP / Fluorescence anisotropy (r): + MgCl2 (polymer): probe 10 μM, FtsZ 10 μM; for Fluorescence anisotropy (r): + GMPCPP / Fluorescence anisotropy (r): + MgCl2 (polymer): GMPCPP 0.1 mM; for Fluorescence anisotropy (r): + MgCl2 (polymer): MgCl2 10 mM, 5–10 min
T2 construct: made in house
Description: (A) Fluorescence anisotropy values of the free probes (10 μM) in buffer, to which FtsZ (10 μM, unassembled) was added, followed by the slowly hydrolyzable GTP analogue GMPCPP (0.1 mM). BsFtsZ polymerization was then induced by the addition of MgCl2 (10 mM) and anisotropy values were recorded 5–10 min later. Nonfluorescent PC190723 (10 μM) was subsequently added to displace the fluorescent probe and anisotropy was measured 5 min later. (B) Fluorescence microscopy images of B. subtilis cells treated for 1.5 h with the minimal division inhibitory concentrations (MDC) of (S)-2 and each enantiomer of 5 (Table S1), acquired employing the probe fluorescence.
(§2) FtsZ from B. subtilis (BsFtsZ) was prepared as described previously.[35] FtsZ was assembled in 50 mM N-(2-hydroxyethyl)piperazine-N′-ethanesulfonic acid (HEPES)-KOH, 50 mM KCl, 1 mM ethylenediaminetetraacetic acid (EDTA), pH 6.8 (HEPES buffer) plus 10 mM MgCl2, and 1 mM GTP or 0.1 mM GMPCPP at 25 °C. FtsZ assembly was monitored by light scattering.[34]

[4] = tested on: S. aureus Mu50; test: Minimal growth inhibitory concentration (broth macrodilution), S. aureus Mu50; type: cell-based, Staphylococcus aureus
Outline: as §1

[5] = target: T3, FtsZ-GMPCPP polymers (BsFtsZ) (Bacillus subtilis, UniProt P17865); test: Binding titration of the fluorescent probes to FtsZ polymers by fluorescence anisotropy
T3 construct: made in house
Description: as §2
The fluorescence spectra and anisotropy values of the different probes were acquired with a Fluoromax-4 (Horiba Jobin Yvon) photon-counting L-format spectrofluorometer using 2 mm × 10 mm cells at 25 °C, employing the maximum excitation and emission wavelength for each probe with 2 and 5 nm bandwidths, respectively. Anisotropy values were automatically measured as r = (Ivv – G Ivh)/(Ivv + 2G Ivh), where the subscripts refer to the vertical (v) or horizontal (h) positions of the excitation (first subscript) and emission (second subscript) polarizers, and G = Ihv/Ihh. Total intensity values were simultaneously determined as IT = Ivv +2G Ivh. Note that measurement correction procedures with T-format (double channel) fluorometers and with plate readers are slightly different.
FtsZ (10–15 μM) was assembled in HEPES buffer, 10 mM MgCl2, 50 μM GMPCPP at 25 °C for 10 min, and then 0.15% (v/v) glutaraldehyde[36] (distilled grade for microscopy, TAAB Laboratories, U.K.) was added to the solution that was incubated at 25 °C for 10 min more. (This was the minimal glutaraldehyde concentration determined to stabilize FtsZ polymers specifically binding probe 1.) The remains of the cross-linking agent were quenched by adding 60 mM NaBH4, the sample was incubated on ice for 10 min and degassed.[36] Cross-linked polymers were centrifuged for 10 min at 8200g (5000 rpm) and 4 °C in 15 mL Falcon tubes employing a Rotina 380R (Hettich) centrifuge, the supernatant was removed and the pellet was resuspended in the same volume of HEPES buffer, 10 mM MgCl2, containing 5 μM GMPCPP. Fixed FtsZ polymers were active in binding assays after more than 2 days at 4 °C; they could also be frozen in liquid nitrogen with a small loss of binding capacity. […] Cross-linked polymers of SaFtsZ were similarly prepared.
Binding affinity of the probes to FtsZ was measured by an increase in anisotropy of the probe (adapted from ref ([49])). Fixed concentrations of the probes (3 μM) were titrated with different FtsZ polymer concentrations (0–40 μM) in HEPES buffer with Mg^2+, to obtain the anisotropy increment, Δrmax, corresponding to the bound probe. The increase in anisotropy was plotted against the FtsZ polymer concentration (calculated by subtracting from the total protein concentration the critical concentration for polymerization under the same conditions) and iteratively least-squares fitted with an isotherm of binding to one site. The estimated values of Δrmax were used to approximate the free FtsZ concentrations, and these new values were employed again until an unchanging Δrmax value was obtained. The convergent data were used to calculate the binding constant of the fluorescent probe to FtsZ polymers (Table S1).

[6] = tested on: B. subtilis; parameters: method as in earlier work; conditions: Table S1; ref 1 (Artola et al., Chem. Sci. 2017); cited from earlier work
[7] = FtsZ-GMPCPP polymers, best fit values from binding titrations
[8] = binding to stabilized FtsZ polymers

T2 sequence (P17865 whole entry): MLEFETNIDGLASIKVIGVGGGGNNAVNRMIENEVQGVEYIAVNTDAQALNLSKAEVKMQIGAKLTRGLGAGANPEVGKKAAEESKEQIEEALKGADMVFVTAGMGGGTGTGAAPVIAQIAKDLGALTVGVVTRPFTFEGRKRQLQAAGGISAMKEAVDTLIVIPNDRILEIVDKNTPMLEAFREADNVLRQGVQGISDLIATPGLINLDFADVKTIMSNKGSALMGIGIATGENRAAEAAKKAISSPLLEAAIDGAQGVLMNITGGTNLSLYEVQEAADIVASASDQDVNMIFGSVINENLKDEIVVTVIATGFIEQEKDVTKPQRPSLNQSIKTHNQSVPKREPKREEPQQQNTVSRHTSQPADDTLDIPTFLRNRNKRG
T3 sequence (P17865 whole entry): as above
T1 sequence (P17865 whole entry): as above

SMILES	MIC B. subtilis [1] [µM]	stoichiometry of probe binding [2]	Fluorescence anisotropy (r): + PC190723 ([3]; data from Fig. 5A)	Fluorescence anisotropy (r): free probe [3]	Fluorescence anisotropy (r): + FtsZ (unassbld.) [3]	Fluorescence anisotropy (r): + GMPCPP [3]	Fluorescence anisotropy (r): + MgCl2 (polymer) [3]	effect on growth of S. aureus Mu50, in words ([4]; 250 µM)	MIC S. aureus Mu50 ([4]; Table S1, fluorescent probes) [µM]	Imax/Imin [5, 7]	rmax (all probe bound) [5, 7]	rmin (free probe) [5, 7]	Kd [5, 7] [µM]	Kd [5, 8] [µM]	Imax/Imin [5, 8]	rmax (all probe bound) [5, 8]	rmin (free probe) [5, 8]	MIC B. subtilis [6] [µM]	Fluorescence anisotropy (r): + PC190723 ([3]; PC190723 10 μM added to the polymer, 5 min)
CCC[C@H](COc1ccc(F)c(C(N)=O)c1F)Nc1ccc([N+](=O)[O-])c2nonc12 [(R)-5]	25 (≈ 10.5 µg/mL)	0.6 molecules per FtsZ monomer	0.052	0.029	0.041	0.040	0.227	partially inhibited growth	> 250	6.2	0.272	0.029	1.9 ± 0.6	2 ± 0.5	5.0	0.268	0.029		
NC(=O)c1c(F)ccc(OCCNc2ccc([N+](=O)[O-])c3nonc23)c1F [Compound 1, reference compound]				0.022	0.027	0.026	0.080			1.0	0.213	0.024	26 ± 3	17 ± 1	1.0	0.26	0.024	800 (≈ 303 µg/mL)	0.029
